# System: 8×TBD luciferase reporter in HEK293T cells
# Assay: YAP Reporter Assay (firefly luciferase)
# Format: cell-based
# Settings: Homo sapiens, HEK-293T; HEK293T cells stably transfected with 8×TBD luciferase reporter and pRLTK; 24-hr incubation; starting from 3 μM, 1:3 dilution, 10 points
# Procedure: HEK293T cells stably transfected with 8×TBD luciferase reporter and pRLTK in 384-well plates were treated with the test compounds, starting from 3 μM (final concentration in assay plate), 1:3 dilution, and 10 points in quadruplicates. Post 24-hr incubation with compounds at 37° C. and 5% CO2, cells were lysed and 8×TBD-driven firefly luciferase and control TK-driven renilla luciferase activities were measured using Promega Dual-Luciferase Reporter Assay System.
# Reagents: The reagents used for this study are: DMEM: Invitrogen #11960077, Dual-Glo Luciferase Assay System: Promega-E2980, Puromycin Dihydrochloride: Invitrogen-A1113803, 384-well plate: PerkinElmer-6007480, L-GLUTAMINE: Invitrogen-25030164, Hygromycin B: Invitrogen-10687010, and Penicillin-Streptomycin: Merk-TMS-AB2-C
# Media: The media used for this assay were: Culture Medium: DMEM+1 ug/mL puromycin+200 ug/mL hygromycin (with 10% FBS+1 mM L-glutamine); and Assay Medium: DMEM (with 10% FBS+1 mM L-glutamine+1×P/S).
# Cell Plating: The appropriate media was warmed at 37° C. by water bath: Culture Medium, Assay Medium, 1*D-PBS, 0.05% trypsin-EDTA. The cells were trypsinized after removing all media, then washed with 1*sterile D-PBS and then with 2 ml 0.05% trypsin-EDTA. The cells were then incubated at RT for one minute. Then 10 ml/75 cm2 flask Assay Medium was added to each flask. Using a 10 ml pipette, the cells were then gently resuspended in the media, until the clumps completely disappeared. The cells were then transferred into 50 ml centrifuge tubes and were centrifuged at 800 rpm for 5 mins. The medium was removed and the cells were resuspended with Assay Medium. An aliquot of cells was used to count the cell density (cells/ml). The cell suspension was then diluted with Assay Medium to a concentration of 6×10^4 cells/ml. 50 ul cells suspension was then plated to 384-well plate (PerkinElmer-6007480), 3×10^3 cells/well and the cells were incubated in an incubator at 37° C., 5% CO2.
# Compound Treatment: In the afternoon (incubation of the plate with 3-4 hrs), the test compounds were added by Echo, starting from 3 uM (final concentration in the assay plate), 1:3 dilution, 10 points, quadruplicates. The plate was placed at 37° C., 5% CO2 incubator for 24 hrs.
# Detection: The Dual-Glo Luciferase Reagent was prepared by transferring the contents of one bottle of Dual-Glo Luciferase Buffer to one bottle of Dual-Glo Luciferase Substrate to create the Dual-G Luciferase Reagent. Mixing was performed by inversion until the substrate was thoroughly dissolved. After mixing, the reagent was aliquoted into 15 ml tubes. In the afternoon (24 hrs post compound treatment), the DMEM+ medium in the 384 well plates were aspirated by Microplate Washer.
# Measuring firefly luciferase activity: 20 ul Dual-Glo Luciferase Reagent was added to the 384-well plates. The plates were protected from light to prevent interference with the assay. The plates were shaken for […] followed centrifuging plates at 1000 rpm for 30 seconds. After waiting at least 10 minutes, the firefly luminescence was measured by Envision.
# Measuring renilla luciferase activity: 20 ul Stop-Glo Reagent was added to the 384-well plates. The plates were shaken for […] and then centrifuged at 1000 rpm for 30 seconds. After waiting at least 10 minutes, the renilla luminescence was measured by Envision.
# Compound IC50 and maximum inhibition on the firefly luciferase and renilla luciferase activities were reported separately.
row,Compound,IC50 [nM]
1,"CC(=O)NCC1CN(C(=O)c2ccc3c(Oc4ccc(C(F)(F)F)cc4)cccc3c2)C1 [Compound 16, N-((1-(5-(4-(trifluoromethyl)phenoxy)-2-naphthoyl)azetidin-3-yl)methyl)acetamide]",≤ 100
2,"NC1CN(C(=O)c2ccc3c(Oc4ccc(C(F)(F)F)cc4)cccc3c2)C1 [Compound 1A, (3-aminoazetidin-1-yl)(5-(4-(trifluoromethyl)phenoxy)naphthalen-2-yl)methanone]",≤ 100
3,"NCC1CCN(C(=O)c2ccc3c(Oc4ccc(C(F)(F)F)cc4)cccc3c2)C1 (stereo not shown) [Compound 8, (3-(Aminomethyl)pyrrolidin-1-yl)(5-(4-(trifluoromethyl)phenoxy)naphthalen-2-yl)methanone]",≤ 100
4,"COCCN1CC2(C1)CN(C(=O)c1ccc3c(Oc4ccc(C(F)(F)F)cc4)cccc3c1)C2 [Compound 22, (6-(2-Methoxyethyl)-2,6-diazaspiro[3.3]heptan-2-yl)(5-(4-(trifluoromethyl)phenoxy)naphthalen-2-yl)methanone]",100 to 1000
5,"CN(C)CC1CN(C(=O)c2ccc3c(Oc4ccc(C(F)(F)F)cc4)cccc3c2)C1 [Compound 14, (3-((Dimethylamino)methyl)azetidin-1-yl)(5-(4-(trifluoromethyl)phenoxy)naphthalen-2-yl)methanone]",100 to 1000
6,"O=C(c1ccc2c(Oc3ccc(C(F)(F)F)cc3)cccc2c1)N1CC(CNCCO)C1 [Compound 37, (3-(((2-Hydroxyethyl)amino)methyl)azetidin-1-yl)(5-(4-(trifluoromethyl)phenoxy)naphthalen-2-yl)methanone]",≤ 100
7,"O=C(c1ccc2c(Oc3ccc(C(F)(F)F)cc3)cccc2c1)N1CC(NCC(F)F)C1 [Compound 32, (3-((2,2-Difluoroethyl)amino)azetidin-1-yl)(5-(4-(trifluoromethyl)phenoxy)naphthalen-2-yl)methanone]",100 to 1000
8,"CN1CC2(C1)CN(C(=O)c1ccc3c(Oc4ccc(C(F)(F)F)cc4)cccc3c1)C2 [Compound 18, (6-Methyl-2,6-diazaspiro[3.3]heptan-2-yl)(5-(4-(trifluoromethyl)phenoxy)naphthalen-2-yl)methanone]",100 to 1000
9,"O=C(c1ccc2c(Oc3ccc(C(F)(F)F)cc3)cccc2c1)N1CC2(CNC2)C1 [Compound 11, (2,6-Diazaspiro[3.3]heptan-2-yl)(5-(4-(trifluoromethyl)phenoxy)naphthalen-2-yl)methanone]",100 to 1000
10,"O=C(c1ccc2c(Oc3ccc(C(F)(F)F)cc3)cccc2c1)N1CC(CNCC(F)F)C1 [Compound 38, (3-(((2,2-Fifluoroethyl)amino)methyl)azetidin-1-yl)(5-(4-(trifluoromethyl)phenoxy)naphthalen-2-yl)methanone]",≤ 100
11,"CCN1CC2(C1)CN(C(=O)c1ccc3c(Oc4ccc(C(F)(F)F)cc4)cccc3c1)C2 [Compound 19, (6-Ethyl-2,6-diazaspiro[3.3]heptan-2-yl)(5-(4-(trifluoromethyl)phenoxy)naphthalen-2-yl)methanone]",100 to 1000
12,"O=C(c1ccc2c(Oc3ccc(C(F)(F)F)cc3)cccc2c1)N1CC(NCCO)C1 [Compound 30, (3-((2-Hydroxyethyl)amino)azetidin-1-yl)(5-(4-(trifluoromethyl)phenoxy)naphthalen-2-yl)methanone]",≤ 100
13,"CNCC1CN(C(=O)c2ccc3c(Oc4ccc(C(F)(F)F)cc4)cccc3c2)C1 [Compound 25, (3-((Methylamino)methyl)azetidin-1-yl)(5-(4-(trifluoromethyl)phenoxy)naphthalen-2-yl)methanone]",100 to 1000

# Reference: patent publication US20240025913A1, “TERTIARY CARBOXAMIDE COMPOUNDS” (Vivace Therapeutics, Inc., priority 2020, published 2024)
